In ChEMBL document CHEMBL3098066, “Minimum active structure of insulin-like peptide 5” (J Med Chem, 2013):
Active and inactive are the calls of the source. The calls are words filed in the database; no cut-off is given here. Where a SMILES comes first, the peptide text is derived from it. Bridges are numbered along the chain shown (N, C = ends). The star is where a group is joined. Acm = CC(=O)NC*; tBu = CC(C)(C)*; Cam = NC(=O)C*

How the values were obtained:
[1] = target: Relaxin-3 receptor 2 (Homo sapiens) (UniProt Q8TDU9); assay: Agonist activity at human RXFP4 transfected in CHO-K1 cells up to 10 uM by beta-galactosidase reporter gene assay relative to forskolin; format: functional, cell-based
[2] = target: Relaxin-3 receptor 2 (Homo sapiens) (UniProt Q8TDU9); assay: Agonist activity at human RXFP4 transfected in CHO-K1 cells assessed as inhibition of forskolin-induced cAMP production by beta-galactosidase reporter gene assay; format: functional, cell-based
[3] = target: Relaxin-3 receptor 2 (Homo sapiens) (UniProt Q8TDU9); assay: Displacement of Eu(A)-mINSL5 acid from human RXFP4 transfected in CHO-K1 cells by fluorescence-based assay; format: cell-based
[4] = target: Relaxin-3 receptor 2 (Homo sapiens) (UniProt Q8TDU9); assay: Agonist activity at human RXFP4 transfected in CHO-K1 cells at 0.01 nM to 1000 nM by beta-galactosidase reporter gene assay relative to forskolin; format: functional, cell-based
[5] = target: Relaxin-3 receptor 2 (Homo sapiens) (UniProt Q8TDU9); assay: Agonist activity at human RXFP4 transfected in CHO-K1 cells at 10 uM by beta-galactosidase reporter gene assay relative to forskolin; format: functional, cell-based

Sequence of Relaxin-3 receptor 2 (Homo sapiens) (Q8TDU9 whole entry): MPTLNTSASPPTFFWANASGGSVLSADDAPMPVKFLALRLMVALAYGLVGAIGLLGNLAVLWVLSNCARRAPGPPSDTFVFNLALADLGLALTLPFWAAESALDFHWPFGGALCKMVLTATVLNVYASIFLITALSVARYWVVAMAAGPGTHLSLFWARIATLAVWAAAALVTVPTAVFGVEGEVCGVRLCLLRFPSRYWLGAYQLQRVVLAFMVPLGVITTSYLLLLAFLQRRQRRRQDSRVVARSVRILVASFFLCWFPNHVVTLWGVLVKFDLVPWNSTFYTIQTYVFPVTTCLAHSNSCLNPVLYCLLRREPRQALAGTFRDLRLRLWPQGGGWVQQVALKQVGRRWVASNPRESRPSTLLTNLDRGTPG

| Emax [1] | pEC50 [2] | pIC50 [3] | Emax [4] | Emax [5] | Compound |
| --- | --- | --- | --- | --- | --- |
| inactive | inactive | inactive | – | – | H-SRQTVKLAGLDYVRTVIYIAR-OH |
| – | inactive | inactive | inactive | – | CSCC[C@H](NC(=O)[C@H](CO)NC(=O)[C@@H]1CSSC[C@H](NC(=O)[C@H](CC(C)C)NC(=O)[C@H](C)NC(=O)[C@H](CCC(N)=O)NC(=O)[C@H](CC(C)C)NC(=O)[C@H](CC(=O)O)NC(=O)[C@@H](N)CCCNC(=N)N)C(=O)N[C@@H](CSC(C)(C)C)C(=O)N[C@@H](CCCNC(=N)N)C(=O)N[C@@H](CCC(=O)O)C(=O)NCC(=O)N1)C(=O)N[C@@H](CCCCN)C(=O)N[C@@H](CCC(=O)O)C(=O)N[C@@H](CC(C)C)C(=O)N[C@@H](CO)C(=O)N[C@H](C(=O)N[C@@H](CC(C)C)C(=O)N[C@@H](CSCNC(C)=O)C(=O)O)[C@@H](C)O (H-RDLQALCC(tBu)REGCSMKELSTLC(Acm)-OH; disulfide 7-12) |
| – | inactive | inactive | inactive | – | CSCC[C@H](NC(=O)[C@H](CO)NC(=O)[C@H](CSCC(N)=O)NC(=O)CNC(=O)[C@H](CCC(=O)O)NC(=O)[C@H](CCCNC(=N)N)NC(=O)[C@H](CSC(C)(C)C)NC(=O)[C@H](CSCC(N)=O)NC(=O)[C@H](CC(C)C)NC(=O)[C@H](C)NC(=O)[C@H](CCC(N)=O)NC(=O)[C@H](CC(C)C)NC(=O)[C@H](CC(=O)O)NC(=O)[C@@H](N)CCCNC(=N)N)C(=O)N[C@@H](CCCCN)C(=O)N[C@@H](CCC(=O)O)C(=O)N[C@@H](CC(C)C)C(=O)N[C@@H](CO)C(=O)N[C@H](C(=O)N[C@@H](CC(C)C)C(=O)N[C@@H](CSCNC(C)=O)C(=O)O)[C@@H](C)O (H-RDLQALC(Cam)C(tBu)REGC(Cam)SMKELSTLC(Acm)-OH) |
| – | inactive | inactive | – | inactive | H-SRQTVKLAGLDYVRTVIYIAASSRW-OH |
